Results from EP3046573B1, “AMYLIN ANALOGUES” (Zealand Pharma A/S, priority 2013, dated 2015).
Like-named read-outs stand apart in the source and are kept apart here. Numbered stars: 1 amine (or outer) side, 2 acyl side, 3 side chain; on linkers, the order of the positions; unused ones are H or OH. Bridge positions count the residues as written; N and C are the ends. Square brackets hold non-standard residues; d marks the D form. Peptide text beside a SMILES is read from it. * marks the point of attachment. C20 diacid = O=C(O)CCCCCCCCCCCCCCCCCCC(=O)*; γGlu = O=C(O)[C@H](CCC(=O)[*:2])N[*:1]; NMeI = CC[C@H](C)[C@H](NC)C(=O)O; Sar = CNCC(=O)O

How the values were obtained:
[1] = target: T1, human amylin receptor 3 (hAMYR3) consisting of hCTR2 co-expressed with human Receptor Activity Modifying Protein 3 (hRAMP3) (Homo sapiens, UniProt O60896+P30988); test: hAMYR3 assay: induction of cAMP (AlphaScreen cAMP Assay kit) in COS7 cells expressing hAMYR3; format: cell-based
T1 construct: expressed in transfected cells
T1 sequence (P30988 25-474): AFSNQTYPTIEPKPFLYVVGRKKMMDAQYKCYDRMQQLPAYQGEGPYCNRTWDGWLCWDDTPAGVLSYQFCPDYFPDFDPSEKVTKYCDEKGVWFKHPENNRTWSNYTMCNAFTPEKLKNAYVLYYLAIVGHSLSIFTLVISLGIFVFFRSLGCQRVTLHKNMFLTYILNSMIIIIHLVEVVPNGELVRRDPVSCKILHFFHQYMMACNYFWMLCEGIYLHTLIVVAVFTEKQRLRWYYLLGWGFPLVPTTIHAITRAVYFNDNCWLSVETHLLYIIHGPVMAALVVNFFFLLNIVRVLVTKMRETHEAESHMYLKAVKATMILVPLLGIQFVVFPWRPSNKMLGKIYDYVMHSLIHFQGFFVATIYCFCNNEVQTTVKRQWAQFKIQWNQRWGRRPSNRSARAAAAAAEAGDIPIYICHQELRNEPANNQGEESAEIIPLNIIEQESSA
T1 sequence (O60896 24-148 partner): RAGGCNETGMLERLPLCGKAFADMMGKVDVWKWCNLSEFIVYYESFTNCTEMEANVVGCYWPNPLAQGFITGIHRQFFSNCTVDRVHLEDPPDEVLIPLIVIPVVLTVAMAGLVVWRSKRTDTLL
Summary of the method: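 cAMP accumulation read by AlphaScreen in lysates of RAMP-naive COS7 cells stably transfected with hCTR2 plus hRAMP3. Cells exposed to peptide dilutions for 15 min, 37° C, with 100 µM IBMX; 4PL fitting gave EC50 and efficacy relative to pramlintide.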

[2] = Solubility assessment (turbidity absorbance at 325 nm); format: physicochemical; conditions: stock 2 mg/ml diluted 1:1, ambient temperature (typically 25°C), n=1; for Solubility, Acetate buffer pH 4: 100 mM acetate buffer pH 4.0; for Solubility, Acetate buffer pH 5: 100 mM acetate buffer pH 5.0; for Solubility, Histidine buffer pH 6: 100 mM histidine buffer pH 6.0; for Solubility, Histidine buffer pH 7: 100 mM histidine buffer pH 7.0; for Solubility, Phosphate buffer pH 6: 100 mM phosphate buffer pH 6.0; for Solubility, Phosphate buffer pH 7: 100 mM phosphate buffer pH 7.0; for Solubility, Phosphate buffer pH 7.5: 100 mM phosphate buffer pH7.5
Summary of the method: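 Turbidity read as absorbance at 325 nm (also 280 nm), single samples at ambient temperature (typically 25°C); ≤ 0.02 units counts as ≥ 1 mg/ml soluble. Samples made by 1:1 dilution of a 2 mg/ml acidic stock into 100 mM acetate, histidine or phosphate buffers, pH 4.0–7.5.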

[3] = target: T2, human calcitonin receptor (hCTR2) (Homo sapiens, UniProt P30988); test: hCTR2 assay: induction of cAMP (AlphaScreen cAMP Assay kit) in COS7 cells expressing hCTR2; format: cell-based
T2 construct: expressed in transfected cells
T2 sequence (P30988 25-474): T1 sequence (P30988 25-474)
Summary of the method: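 Peptide-induced cAMP in hCTR2-expressing COS7 cells, 15 min at 37° C with phosphodiesterase inhibitor IBMX (100 µM), detected by AlphaScreen; potency from 4PL curves.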

Row | EC50 ([1]; cAMP induction in COS7 cells expressing hAMYR3, average of a minimum of 3 determinations, read-out: hAMY R3 EC50) [nM] | EC50 ([3]; cAMP induction in COS7 cells expressing hCTR2, average of a minimum of 3 determinations, read-out: hCTR2 EC50) [nM] | SMILES | Solubility, Acetate buffer pH 4 [2] | Solubility, Acetate buffer pH 5 [2] | Solubility, Histidine buffer pH 6 [2] | Solubility, Histidine buffer pH 7 [2] | Solubility, Phosphate buffer pH 6 [2] | Solubility, Phosphate buffer pH 7 [2] | Solubility, Phosphate buffer pH 7.5 [2] | EC50 [1] [nM] | EC50 [3] [nM]
1 | 0.095 | 0.045 | CC[C@H](C)[C@@H](C(=O)N[C@@H](CC(C)C)C(=O)N[C@@H](CO)C(=O)N[C@@H](CO)C(=O)N[C@H](C(=O)N[C@@H](CC(=O)O)C(=O)N[C@H](C(=O)NCC(=O)N[C@@H](CO)C(=O)N[C@@H](CC(=O)O)C(=O)N[C@H](C(=O)N1CCC[C@H]1C(N)=O)[C@@H](C)O)C(C)C)[C@@H](C)O)N(C)C(=O)[C@H](C)NC(=O)CN(C)C(=O)[C@H](Cc1ccccc1)NC(=O)[C@H](CO)NC(=O)[C@H](CO)NC(=O)[C@H](CCCNC(=N)N)NC(=O)[C@H](Cc1c[nH]cn1)NC(=O)[C@H](CC(C)C)NC(=O)[C@H](Cc1ccccc1)NC(=O)[C@H](CCC(=O)O)NC(=O)[C@H](C)NC(=O)[C@H](CC(C)C)NC(=O)[C@H](CCCNC(=N)N)NC(=O)[C@H](CC(=O)O)NC(=O)[C@@H](NC(=O)[C@H](C)NC(=O)[C@@H]1CSSC[C@H](NC(=O)[C@H](CCCNC(=N)N)NC(=O)CC[C@H](NC(=O)CCCCCCCCCCCCCCCCCCC(=O)O)C(=O)O)C(=O)N2CCC[C@H]2C(=O)N[C@@H]([C@@H](C)O)C(=O)N[C@@H](C)C(=O)N[C@@H]([C@@H](C)O)C(=O)N1)[C@@H](C)O [Compound 172, [19CD]-isoGlu-RC()PTATC()ATDRLAEFLHRSSF-Gly(Me)-A-Ile(Me)-LSSTDVGSDTP-NH2] ({C20 diacid-γGlu}-RCPTATCATDRLAEFLHRSSF[Sar]A[NMeI]LSSTDVGSDTP-NH2; disulfide 2-7) | SS (SS indicates solubility ≥ 1mg/ml) | SS (SS indicates solubility ≥ 1mg/ml) | SS (SS indicates solubility ≥ 1mg/ml) | SS (SS indicates solubility ≥ 1mg/ml) | SS (SS indicates solubility ≥ 1mg/ml) | SS (SS indicates solubility ≥ 1mg/ml) | SS (SS indicates solubility ≥ 1mg/ml) | – | –
2 | – | – | CC[C@H](C)[C@@H](C(=O)N[C@@H](CC(C)C)C(=O)N[C@@H](CO)C(=O)N[C@@H](CO)C(=O)N[C@H](C(=O)N[C@@H](CC(N)=O)C(=O)N[C@H](C(=O)NCC(=O)N[C@@H](CO)C(=O)N[C@@H](CC(N)=O)C(=O)N[C@H](C(=O)N1CCC[C@H]1C(N)=O)[C@@H](C)O)C(C)C)[C@@H](C)O)N(C)C(=O)[C@H](C)NC(=O)CN(C)C(=O)[C@H](Cc1ccccc1)NC(=O)[C@H](CC(N)=O)NC(=O)[C@H](CC(N)=O)NC(=O)[C@H](CO)NC(=O)[C@H](CO)NC(=O)[C@H](CCCNC(=N)N)NC(=O)[C@H](Cc1c[nH]cn1)NC(=O)[C@H](CC(C)C)NC(=O)[C@H](Cc1ccccc1)NC(=O)[C@H](CCC(=O)O)NC(=O)[C@H](C)NC(=O)[C@H](CC(C)C)NC(=O)[C@H](CCCNC(=N)N)NC(=O)[C@H](CCC(N)=O)NC(=O)[C@@H](NC(=O)[C@H](C)NC(=O)[C@@H]1CSSC[C@H](NC(=O)[C@H](Cc2c[nH]c3ccccc23)NC(=O)[C@H](CCCNC(=N)N)NC(=O)CC[C@H](NC(=O)CCCCCCCCCCCCCCCCCCC(=O)O)C(=O)O)C(=O)N[C@@H](CC(N)=O)C(=O)N[C@@H]([C@@H](C)O)C(=O)N[C@@H](C)C(=O)N[C@@H]([C@@H](C)O)C(=O)N1)[C@@H](C)O [Compound 174, [19CD]-isoGlu-RWC()NTATC()ATQRLAEFLHRSSNNF-Gly(Me)-A-Ile(Me)-LSSTNVGSNTP-NH2] ({C20 diacid-γGlu}-RWCNTATCATQRLAEFLHRSSNNF[Sar]A[NMeI]LSSTNVGSNTP-NH2; disulfide 3-8) | SS (SS indicates solubility ≥ 1mg/ml) | SS (SS indicates solubility ≥ 1mg/ml) | SS (SS indicates solubility ≥ 1mg/ml) | SS (SS indicates solubility ≥ 1mg/ml) | SS (SS indicates solubility ≥ 1mg/ml) | SS (SS indicates solubility ≥ 1mg/ml) | II (II indicates solubility ≤ 1 mg/ml) | 0.18 | 0.18
